According to publication PMC11061149, “Protein mimetic 2D FAST rescues alpha synuclein aggregation mediated early and post disease Parkinson’s phenotypes” (Nature Communications, 2024):
“And” between values parts separate entries of the source, which are not always exact repeats. Equal values may be shown once.

Target: T1, αS aggregation (Homo sapiens, UniProt P37840)
T1 construct: made in house; host or cells: E. coli BL21(DE3)
Assay: SDS-PAGE gel shift assay of soluble and insoluble αS fractions
Type: biochemical
Settings: for Total (αS, SDS-PAGE gel shift), Average: average of 3 trials
Description: The inhibition of αS aggregation by NS41 was also confirmed by TEM images, which show an abundance (Supplementary Fig. 3a) and low amount (Supplementary Fig. 3b) of αS fibers in the absence and presence of NS41, respectively. We used SDS-PAGE (Sodium dodecyl sulfate polyacrylamide gel electrophoresis) as a complementary assay to validate ThT results and to further characterize the antagonist activity of the monopyridyls against αS aggregation. We used a total of four monopyridyls with varying antagonist activity against αS aggregation for the SDS-PAGE assay. The solutions of αS (±monopyridyls) were centrifuged and the soluble and insoluble fractions were subjected to SDS-PAGE analysis as reported earlier (Fig. 2d, Supplementary Fig. 4a, see details in methods section). The band intensities of the gels in SDS-PAGE assay were quantified using ImageJ software. In the absence of ligands, ~12% of αS was found in the soluble fraction and the rest was found in the insoluble fraction (Fig. 2d, Supplementary Fig. 4a, b). In the presence of NS41 at molar ratios of 1:1 and 2:1 (NS41:αS), 48% and 73% of αS protein were found in the soluble fraction, respectively, and the rest of αS protein was found in the insoluble fraction (Fig. 2d, Supplementary Fig. 4a, b). […] The antagonist activity of the monopyridyls corroborated well from both ThT and the SDS-PAGE assays (Fig. 2a–d, Supplementary Fig. 4a, b). The higher the antagonist activity of monopyridyls against αS aggregation, the lower the ThT intensity and the higher the amount of αS remained in the soluble fraction (Fig. 2a–d, Supplementary Fig. 4a, b). […] It is important to note that NS41 contains a carboxyl (COOH) functional group side chain. […] We have also shown in that work that the foldamer binds to the N-terminus of αS because of its negatively charged COOH functional group interaction with the positively charged lysine residues of αS[24]. […] Additionally, we have also shown that the OPs with the COOH functional group are very effective inhibitors of aggregation of other amyloid proteins that contain lysine amino acid via the formation of salt bridges[30]–[34].
An αS solution (100 µM) was prepared in PBS with or without ligands and shaken ([…], 37 °C) until the fluorescence plateaued, as observed using the ThT aggregation assay, indicative of the aggregation of αS as a control (four days for most experiments unless otherwise mentioned). The solutions were separated into soluble and insoluble fractions by centrifugation at 22,000 × g for 20 min. The fractions were diluted in 2×Laemmli protein sample loading buffer (Containing 2.1% SDS, Bio-rad, Hercules, CA), boiled at 95 °C for 5 min, and ran on a 12% Mini-PROTEAN precast protein gel (Bio-rad, Hercules, CA). The gel was visualized using ChemiDoc MP Imaging System (Bio-rad, Hercules, CA) and band intensity was quantified using Image Lab image acquisition and analysis software (Bio-rad, Hercules, CA). Densitometry values were averaged from three technical replicates and reported with the error bars representing their standard deviations.

Cc1ccc(NC(=O)c2ccc(NC(=O)c3ccc([N+](=O)[O-])c(NCCc4c[nH]c5ccccc45)n3)c(NCC3CCCCC3)n2)c(OCC(=O)O)n1 [NS132]
amount of αS in the insoluble fraction (100 µM αS, four days, equimolar): 14% and 11% | Total (αS, SDS-PAGE gel shift), Average (NS132 0.2 eq.): 1.493 | Total (αS, SDS-PAGE gel shift), Trial 1-3 (NS132 0.2 eq., individual trials, Synuclein alone total ~1): 1.48 and 1.6 and 1.4 | Total (αS, SDS-PAGE gel shift), Average (NS132 1.0 eq.): 1.161 | Total (αS, SDS-PAGE gel shift), Trial 1-3 (NS132 1.0 eq., individual trials): 1.099 and 1.145 and 1.24 | αS band intensity, Total, Average (sheet S7B): 99.9667 | αS band intensity, Total (sheet S7B, individual trials): 92.4 and 101.3 and 106.2 | distribution of αS between soluble and insoluble fraction, in words (substoichiometric ratio αS:ligand 1:0.5): predominantly detected in the soluble fraction
